Read-outs that look alike come from different tables or passages of the source.
Key:
mosquitoes = test: Caged mortality test of egg laying structures returned after one month in the field; conditions: paper paddles returned to the lab after one month in the field
Method: A field test of a lethal breeding container according to Example 2, containing 0.87 deltramethrin on the egg laying structure, was conducted at three military housing sites in the Rio de Janeiro area of Brazil. At each housing site, six houses were selected to receive the lethal breeding containers. About 500 meters away, six houses were selected to serve as control units.
After one month in the field, the egg laying structures from the lethal container breeding containers were dried and shipped to the U.S. for testing. Four egg laying structures from outside lethal mosquito breeding containers and four egg laying structures from inside lethal mosquito breeding containers were reused in lethal. mosquito breeding containers and the mortality rate was determined.
A 1 cubic foot mosquito cage was used. The mosquitoes are given a blood meal at day 4 to 6 after post-emergence. […]
The mortality rate is determined by counting the number of deceased mosquitoes and live mosquitoes, adding these numbers together to arrive at the total number of mosquitoes exposed, and then dividing number of deceased mosquitoes by the total number of mosquitoes and multiplying that quotient by 100%. […]

[1] = rat, 90 day period; cited from earlier work
[2] = 2 year beagle; cited from earlier work

For `CC1(C)[C@H](C(=O)O[C@H](C#N)c2cccc(Oc3ccccc3)c2)[C@@H]1C=C(Br)Br` [deltamethrin], the “average mortality in caged tests” value (mosquitoes) is listed as 80%, the NOEL [1] is listed as 1 mg/kg/day and the NOEL [2] is listed as 1 mg/kg/day.
